{"source": "BindingDB's records for doi:10.7270/Q2125R2H", "about": "(University of Pittsburgh, 2007)", "note": "pIC50: −log10 of the molar value."}
{"molecular_target": "T1, M-phase inducer phosphatase 2 (Homo sapiens, UniProt P30305)", "T1 sequence (P30305 whole entry)": "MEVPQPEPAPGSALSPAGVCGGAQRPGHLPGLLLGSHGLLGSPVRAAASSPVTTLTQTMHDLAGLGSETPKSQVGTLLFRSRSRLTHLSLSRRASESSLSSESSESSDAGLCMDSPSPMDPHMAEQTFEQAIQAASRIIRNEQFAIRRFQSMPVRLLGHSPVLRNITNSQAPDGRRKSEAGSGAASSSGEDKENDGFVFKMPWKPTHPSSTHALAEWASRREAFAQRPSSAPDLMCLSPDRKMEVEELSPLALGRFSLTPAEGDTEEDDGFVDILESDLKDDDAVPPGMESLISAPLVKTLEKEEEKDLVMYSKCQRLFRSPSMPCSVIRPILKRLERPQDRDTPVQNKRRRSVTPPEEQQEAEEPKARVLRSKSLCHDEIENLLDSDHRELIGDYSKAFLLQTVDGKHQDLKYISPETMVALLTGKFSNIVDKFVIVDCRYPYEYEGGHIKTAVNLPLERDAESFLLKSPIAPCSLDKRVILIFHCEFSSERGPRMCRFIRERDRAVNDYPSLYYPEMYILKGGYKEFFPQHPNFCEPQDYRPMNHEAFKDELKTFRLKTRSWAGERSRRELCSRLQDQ", "assay": "Cdc25B phosphatase inhibitors, dose response, biochemical, probe assessment (AID 676)"}
{"compound": "N#Cc1c(N)sc(=S)c2c1CCN(Cc1ccccc1)C2", "note": "[3-Amino-7-benzyl-1-thioxo-5,6,7,8-tetrahydro-1H-thiopyrano[3,4-c]pyridine-4-carbonitrile]", "pIC50": 5.30}
{"compound": "CCc1ccc(NC(=O)CSc2nc3ccccc3c(=O)n2CCN2CCOCC2)cc1", "note": "[MLS000095236]", "pIC50": "< 4.30"}
{"compound": "Cc1cccc(N2CCN(C(=O)Cc3c(C(=O)O)[nH]c4ccc(Cl)cc34)CC2)c1C", "note": "[5-chloranyl-3-[2-[4-(2,3-dimethylphenyl)piperazin-1-yl]-2-oxidanylidene-ethyl]-1H-indole-2-carboxylic acid]", "pIC50": "< 4.30"}
{"compound": "Cc1ccc(-c2csc(NC(=O)c3ccno3)n2)cc1", "note": "[MLS000081820]", "pIC50": 4.45}
{"compound": "CCOC(=O)c1ccc2c(c1)C1C=CCC1C(C(=O)O)N2", "note": "(stereo not drawn) [MLS-0025126.0001]", "pIC50": 4.74}
{"compound": "COC(=O)c1ccccc1NC(=O)CN1C(=O)C2CCCN2c2ncc(Cl)cc21", "note": "(stereo not drawn) [MLS000094302]", "pIC50": "< 4.30"}
{"compound": "[O-]/[N+](=C\\c1ccncc1)c1ccccc1", "pIC50": "< 4.30"}
{"compound": "O=C(c1cccs1)c1no[n+]([O-])c1C(=O)c1cccs1", "note": "[(5-oxidanidyl-4-thiophen-2-ylcarbonyl-1,2,5-oxadiazol-5-ium-3-yl)-thiophen-2-yl-methanone]", "pIC50": "< 4.30"}
{"compound": "COc1ccc2noc3c2c1C(=O)c1ccccc1-3", "note": "[MLS000106874]", "pIC50": "< 4.30"}
{"compound": "CCn1nc(-c2ccccc2)nc2c(=O)n(C)c(=O)nc1-2", "note": "[1-Ethyl-6-methyl-3-phenyl-1H-pyrimido[5,4-e][1,2,4]triazine-5,7-dione]", "pIC50": 6.35}
{"compound": "O=C(NC1(O)C(=O)c2ccccc2C1=O)c1ccccc1", "note": "[N-(2-hydroxy-1,3-dioxo-2-indenyl)benzamide]", "pIC50": 4.90}
{"compound": "Cc1ccc(C)n1-c1cccc(C(=O)O)c1", "pIC50": "< 4.30"}
{"compound": "CC(C)Cn1c(N)c(C(=O)COC(=O)c2cc(-c3ccco3)nc3ccccc23)c(=O)n(C)c1=O", "note": "[2-(2-furanyl)-4-quinolinecarboxylic acid [2-[4-amino-1-methyl-3-(2-methylpropyl)-2,6-dioxo-5-pyrimidinyl]-2-oxoethyl] ester]", "pIC50": 4.33}
{"compound": "CCOc1cc(/C=C(/C#N)c2ccc(F)cc2)ccc1OCc1ccc(C(=O)O)o1", "note": "[5-[[4-[(E)-2-cyano-2-(4-fluorophenyl)ethenyl]-2-ethoxyphenoxy]methyl]furan-2-carboxylic acid]", "pIC50": "< 4.30"}
{"compound": "COc1ccc(-c2cc3nc(C4CCN(C(=O)OC(C)(C)C)CC4)c(C(=O)O)cn3n2)cc1", "note": "[2-(4-methoxyphenyl)-5-[1-[(2-methylpropan-2-yl)oxy-oxomethyl]-4-piperidinyl]-6-pyrazolo[1,5-a]pyrimidinecarboxylic acid]", "pIC50": "< 4.30"}
{"compound": "CCCSc1nnc(NC(=O)c2sc3nc(-c4cccs4)ccc3c2N)s1", "note": "[3-amino-N-(5-propylsulfanyl-1,3,4-thiadiazol-2-yl)-6-thiophen-2-ylthieno[2,3-b]pyridine-2-carboxamide]", "pIC50": "< 4.30"}
{"compound": "CCn1c(SCC(=O)Nc2ccc3c(c2)c2ccccc2n3CC)nnc1-c1ccco1", "note": "[MLS000050867]", "pIC50": 4.34}
{"compound": "Cc1cc(NC(=O)c2ccc(S(=O)(=O)N3CCCC3)cc2)nc2c1c(=O)oc1ccccc12", "note": "[MLS000091355]", "pIC50": "< 4.30"}
{"compound": "CCn1c(SCC(=O)Nc2nc3ccc(OC)cc3s2)nc2c1c(=O)n(C)c(=O)n2C", "note": "[2-(7-Ethyl-1,3-dimethyl-2,6-dioxo-2,3,6,7-tetrahydro-1H-purin-8-ylsulfanyl)-N-(6-methoxy-benzothiazol-2-yl)-acetamide]", "pIC50": "< 4.30"}
{"compound": "CCCCC[C@H](O)C=C[C@H]1C=CC(=O)[C@@H]1C/C=C\\CCCC(=O)O", "note": "[(Z)-7-[(1R,5S)-2-oxidanylidene-5-[(E,3S)-3-oxidanyloct-1-enyl]cyclopent-3-en-1-yl]hept-5-enoic acid]", "pIC50": "< 4.30"}
{"compound": "CC1=C(/C=C/C(C)=C/C=C/C(C)=C/C(=O)O)C(C)(C)CCC1", "note": "[ALL-TRANS-RETINOIC ACID]", "pIC50": "< 4.30"}
{"compound": "Cc1ccc(/C=C/C2=Cc3c(sc(NC(=O)CSc4nnc(N)[nH]4)c3C#N)C(C)(C)C2)o1", "note": "[2-[(5-azanyl-1H-1,2,4-triazol-3-yl)sulfanyl]-N-[3-cyano-7,7-dimethyl-5-[(E)-2-(5-methylfuran-2-yl)ethenyl]-6H-1-benzothiophen-2-yl]ethanamide]", "pIC50": 4.33}
{"compound": "O=C1C=Cc2ccccc2C1=O", "note": "[1,2-dihydronaphthalene-1,2-dione]", "pIC50": 4.72}
{"compound": "CCOc1ccc(-c2cc3nc(C4CCN(C(=O)OC(C)(C)C)CC4)c(C(=O)O)cn3n2)cc1", "note": "[2-(4-ethoxyphenyl)-5-[1-[(2-methylpropan-2-yl)oxy-oxomethyl]-4-piperidinyl]-6-pyrazolo[1,5-a]pyrimidinecarboxylic acid]", "pIC50": "< 4.30"}
{"compound": "CCOc1ccc2noc3c2c1C(=O)c1ccccc1-3", "note": "[MLS000106837]", "pIC50": "< 4.30"}
{"compound": "CCCCCNC(=O)c1ccc2c(=O)[nH]c3c(C(=O)NCC4CCCO4)sc(=S)n3c2c1", "note": "(stereo not drawn) [5-oxo-N3-(2-oxolanylmethyl)-N8-pentyl-1-sulfanylidene-4H-thiazolo[3,4-a]quinazoline-3,8-dicarboxamide]", "pIC50": "< 4.30"}
{"compound": "COCCCn1c(N)c(C(=O)NCCC(C)C)c2nc3ccccc3nc21", "note": "[MLS000041744]", "pIC50": "< 4.30"}
{"compound": "Cc1c(N=c2c(=O)c3ccccc3c2=O)c(=O)n(-c2ccccc2)n1C", "note": "[MLS000105950]", "pIC50": 4.86}
{"compound": "N#Cc1c(N2CCCC2)nc(N)c2c(N)nc(N3CCCC3)cc12", "note": "[SMR000061605]", "pIC50": 4.67}
{"compound": "FC(F)(F)c1ccc(N2CCOCC2)c(Nc2nc3ccccc3n3cnnc23)c1", "note": "[MLS000093276]", "pIC50": "< 4.30"}
{"compound": "CCCCn1c(NC(=O)c2ccccc2)c(C#N)c2nc3ccccc3nc21", "note": "[SMR000060333]", "pIC50": 4.50}
{"compound": "CC(C)Sc1nc2sc3c(c2c2nnc(SCC(=O)NCc4ccco4)n12)CCCC3", "note": "[MLS000082957]", "pIC50": "< 4.30"}
{"compound": "Cc1cc(C)n2c(SCC(=O)N3CCN(S(=O)(=O)c4ccc(Cl)cc4)CC3)nnc2n1", "note": "[1-[4-(4-chlorophenyl)sulfonyl-1-piperazinyl]-2-[(5,7-dimethyl-[1,2,4]triazolo[4,3-a]pyrimidin-3-yl)thio]ethanone]", "pIC50": "< 4.30"}
{"compound": "O=C(OC1CCCCC1)c1ccc2c(c1)C1C=CCC1C(C(=O)O)N2", "note": "(stereo not drawn) [SMR000019385]", "pIC50": 5.02}
{"compound": "Cn1ncnc2c(=O)n(C)c(=O)nc1-2", "pIC50": 6.40}
{"compound": "Cc1ccc2c(c1C)NC(C(=O)O)C1CC=CC21", "note": "(stereo not drawn)", "pIC50": 4.80}
{"compound": "Cc1cccc(NC(=O)c2cc(NC(=O)C3CCCCC3C(=O)O)ccc2N2CCCCC2)c1", "note": "(stereo not drawn) [2-({[3-{[(3-methylphenyl)amino]carbonyl}-4-(1-piperidinyl)phenyl]amino}carbonyl)cyclohexanecarboxylic acid]", "pIC50": "< 4.30"}
{"compound": "COc1ccc(Cn2c(C)nc3c(c2=O)c2nc4ccccc4nc2n3Cc2ccco2)cc1", "note": "[MLS000079944]", "pIC50": 4.33}
{"compound": "O=C(Nc1ccc2nc(-c3ccco3)c(-c3ccco3)nc2c1)N1CCCCCC1", "pIC50": 4.50}
{"compound": "COc1ccc(Br)cc1C=c1sc2nc(-c3ccco3)nn2c1=O", "note": "[5-[(5-bromanyl-2-methoxy-phenyl)methylidene]-2-(furan-2-yl)-[1,3]thiazolo[3,2-b][1,2,4]triazol-6-one]", "pIC50": 4.83}
{"compound": "CCn1nc(-c2cccs2)nc2c(=O)n(C)c(=O)nc1-2", "note": "[1-ethyl-6-methyl-3-thiophen-2-yl-pyrimido[5,4-e][1,2,4]triazine-5,7-dione]", "pIC50": 6.26}
{"compound": "O=C1Nc2ccccc2SC(c2ccccc2)C1O", "note": "(stereo not drawn) [3-hydroxy-2-phenyl-2,3-dihydro-1,5-benzothiazepin-4(5H)-one]", "pIC50": "< 4.30"}
{"compound": "O=C(Nc1ccccc1)c1ccc2nc(-c3ccco3)c(-c3ccco3)nc2c1", "note": "[2,3-di-2-furyl-N-phenyl-6-quinoxalinecarboxamide]", "pIC50": 4.45}
